How the values were obtained:
[1] = biological target: intermediate conductance Ca^2+-activated K^+ channels (Homo sapiens, UniProt O15554); settings: cited from earlier work
[2] = biological target: T1, hSK2A^+ expressed in mammalian tsA201 cells (Homo sapiens, UniProt Q9H2S1, DUP58-58); experiment: Membrane potential sensitive dye fluorescence (FLIPR) assay in tsA201 cells stably expressing SK2; assay type: cell-based; settings: FIG. 9; for Hill coefficient (nH): inhibition of ATP/Tg induced decrease in fluorescence
T1 construct: other: 100 nM to 1 mM added online; normalized to maximum fluorescence a; Hill coefficient (nH); hSK2A^+ was 1743 nucleotides in length and encoded a polypeptide of 580 amino acids
T1 sequence (Q9H2S1 with tags, fused parts or gaps DUP58-58): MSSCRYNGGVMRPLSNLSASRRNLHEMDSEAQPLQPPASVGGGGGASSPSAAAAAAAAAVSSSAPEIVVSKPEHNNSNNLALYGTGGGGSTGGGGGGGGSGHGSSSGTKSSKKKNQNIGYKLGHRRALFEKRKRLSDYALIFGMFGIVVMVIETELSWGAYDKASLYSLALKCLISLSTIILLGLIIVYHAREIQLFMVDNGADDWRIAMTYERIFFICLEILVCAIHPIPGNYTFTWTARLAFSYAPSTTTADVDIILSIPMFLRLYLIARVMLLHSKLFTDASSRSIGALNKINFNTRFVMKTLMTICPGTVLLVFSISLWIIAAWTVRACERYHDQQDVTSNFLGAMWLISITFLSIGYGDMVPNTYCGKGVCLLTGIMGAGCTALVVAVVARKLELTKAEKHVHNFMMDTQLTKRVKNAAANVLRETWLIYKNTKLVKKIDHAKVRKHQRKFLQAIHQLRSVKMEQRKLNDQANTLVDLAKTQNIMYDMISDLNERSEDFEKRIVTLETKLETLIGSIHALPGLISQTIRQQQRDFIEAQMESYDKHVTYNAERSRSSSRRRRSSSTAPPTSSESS
Procedure: (§1) These cells were plated in a black optical bottom 384 well assay plate at a density of 8×10^6 cells/plate. […] After a 30-minute incubation in the voltage sensitive dye, the cell plate was transferred to a fluorescence plate reader (FLIPR384™, Molecular Devices), and ten baseline fluorescence readings were obtained.
(§2) In FIG. 8, time is represented in seconds on the X-axis, and fluorescence is represented in au on the Y-axis. ATP/Tg addition is indicated at time I, and CsCl addition is indicated at time II.
(§3) The magnitude of the ATP/Tg induced decrease in fluorescence was measured in the presence of each of a panel of known SK2 inhibitors. […]

[3] = system: hSK2A^+ expressed in mammalian tsA201 cells; experiment: as above; assay type: cell-based, human; settings: 10 minutes incubation
Procedure: as §1, §2, §3

Sequence of intermediate conductance Ca^2+-activated K^+ channels (O15554 whole entry): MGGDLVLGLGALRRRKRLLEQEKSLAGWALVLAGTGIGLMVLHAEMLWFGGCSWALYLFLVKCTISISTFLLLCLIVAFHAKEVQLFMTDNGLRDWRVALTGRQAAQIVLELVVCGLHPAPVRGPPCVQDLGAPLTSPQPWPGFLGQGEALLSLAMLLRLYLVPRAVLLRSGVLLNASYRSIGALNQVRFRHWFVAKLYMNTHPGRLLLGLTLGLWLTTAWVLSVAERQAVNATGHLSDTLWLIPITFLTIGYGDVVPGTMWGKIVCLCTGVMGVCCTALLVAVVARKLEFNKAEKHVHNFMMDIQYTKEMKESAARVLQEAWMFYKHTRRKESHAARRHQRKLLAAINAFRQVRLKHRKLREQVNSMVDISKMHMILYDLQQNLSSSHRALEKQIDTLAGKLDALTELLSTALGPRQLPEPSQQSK

CCn1c(=O)[nH]c2ccccc21 [1-EBIO, 1-ethyl-2-benzimidazolinone]
effect on intermediate conductance Ca2+-activated K+ channels [1]: enhance activity

O=c1[nH]c2cc(C(F)(F)F)ccc2n1-c1cc(C(F)(F)F)ccc1O [NS1619]
binding affinity of the inhibitors tested (rank order) [2]: apamin>scyllatoxin>NS1619>quinidine>bicuculline

C[N+]1(C)CCc2cc3c(cc2[C@H]1[C@@H]1OC(=O)c2c1ccc1c2OCO1)OCO3.[Br-] [bicuculline methobromide]
binding affinity of the inhibitors tested (rank order) [2]: apamin>scyllatoxin>NS1619>quinidine>bicuculline | Hill coefficient (nH) [2]: 1

Nc1cc(N2CCCCC2)nc(N)[n+]1[O-] [minoxidil]
effect on the fluorescence signals (responses to ATP/Tg and Cs+) ([3]; tested at 1.43 μM): no effect

CC(N/C(=N\C#N)Nc1ccncc1)C(C)(C)C (centres unmarked) [pinacidil]
effect on the fluorescence signals (responses to ATP/Tg and Cs+) ([3]; tested at 286 μM): no effect

C=C[C@H]1C[N@@]2CC[C@H]1C[C@@H]2[C@@H](O)c1ccnc2ccc(OC)cc12 [quinidine]
binding affinity of the inhibitors tested (rank order) [2]: apamin>scyllatoxin>NS1619>quinidine>bicuculline | Hill coefficient (nH) [2]: 0.6

iberiotoxin: inhibitor of the IK channel; isolated from Mesobuthus taniulus (QFTDVDCSVSKECWSVCKDLFGVDRGKCMGKKCRCYQ)
effect on the fluorescence signals (responses to ATP/Tg and Cs+) ([3]; tested at 833 nM): no effect

noxiustoxin: inhibitor of Ca2+- and voltage activated channels (TIINVKCTSPKQCSKPCKELYGSSAGAKCMNGKCKCYNN)
effect on the fluorescence signals (responses to ATP/Tg and Cs+) ([3]; tested at 833 nM): no effect

α-dendrotoxin (QPRRKLCILHRNPGRCYDKIPAFYYNQKKKQCERFDWSGCGGNSNRFKTIEECRRTCIG)
effect on the fluorescence signals (responses to ATP/Tg and Cs+) ([3]; tested at 833 nM): no effect

From patent US20080268439A1, “ASSAY SYSTEMS AND METHODS FOR DETECTING MOLECULES THAT INTERACT WITH SK2 CHANNELS” (priority 2007, published 2008)
